{
  "source": "patent US4322555A",
  "about": "“Nonaprenylamine derivatives” (priority 1980, dated 1982)",
  "key": {"[1]": {"system": "serum interferon", "set-up": "species or system mice", "conditions": "mouse, in vivo"}, "[2]": {"system": "vaccinia virus (DIE strain)", "assay_type": "in vivo, vaccinia virus (DIE strain) in ICR female mice", "conditions": "50 mg/kg i.p. on the day just before inoculation; ICR female mice; lesions counted 8th day"}, "[3]": {"test": "Toxicity (acute toxicity, 50% lethal dose)", "conditions": "mouse, in vivo, ddY male mice"}, "[4]": {"conditions": "ip, read-out: 50% Lethal dose, intraperitoneally administered"}, "[5]": {"conditions": "iv, read-out: 50% Lethal dose, intravenously administered"}},
  "note": "Where a name gives a salt, the structure may show the parent alone. Read-outs that look alike come from different tables or passages of the source.",
  "data": [
    {"smiles": "CC(C)=CCCC(C)=CCCC(C)=CCCC(C)=CCCC(C)=CCCC(C)=CCCC(C)=CCCC(C)=CCCC(C)=CCN(C)Cc1ccccc1", "note": "[N-methyl-N-benzylsolanesylamine hydrochloride]", "values": [
      {"measurement": "Serum interferon (Plaque inhibition)", "setting": "[1]", "result": 44.5, "unit": "%"},
      {"measurement": "Prevention from vaccinia infection (Inhibition of tail lesion)", "setting": "[2]", "result": 17.5, "unit": "%"},
      {"measurement": "LD50", "setting": "[3]; [4]", "result": "> 500", "unit": "mg/kg"},
      {"measurement": "LD50", "setting": "[3]; [5]", "result": 550, "unit": "mg/kg"}
    ]},
    {"smiles": "CC(C)=CCCC(C)=CCCC(C)=CCCC(C)=CCCC(C)=CCCC(C)=CCCC(C)=CCCC(C)=CCCC(C)=CCN(C)c1ccccc1", "note": "[N-methyl-N-phenylsolanesylamine]", "values": [
      {"measurement": "Serum interferon (Plaque inhibition)", "setting": "[1]", "result": 24.1, "unit": "%"},
      {"measurement": "Prevention from vaccinia infection (Inhibition of tail lesion)", "setting": "[2]", "result": 26.8, "unit": "%"},
      {"measurement": "LD50", "setting": "[3]; [4]", "result": "> 500", "unit": "mg/kg"},
      {"measurement": "LD50", "setting": "[3]; [5]", "result": "> 500", "unit": "mg/kg"}
    ]},
    {"smiles": "CC(C)=CCCC(C)=CCCC(C)=CCCC(C)=CCCC(C)=CCCC(C)=CCCC(C)=CCCC(C)=CCCC(C)=CCNCc1ccccc1", "note": "[N-benzylsolanesylamine hydrochloride]", "values": [
      {"measurement": "Serum interferon (Plaque inhibition)", "setting": "[1]", "result": 31.5, "unit": "%"},
      {"measurement": "Prevention from vaccinia infection (Inhibition of tail lesion)", "setting": "[2]", "result": 74.7, "unit": "%"},
      {"measurement": "LD50", "setting": "[3]; [5]", "result": 152, "unit": "mg/kg"}
    ]},
    {"smiles": "CC(C)=CCCC(C)=CCCC(C)=CCCC(C)=CCCC(C)=CCCC(C)=CCCC(C)=CCCC(C)=CCCC(C)=CCNCCc1ccccc1", "note": "[N-phenethylsolanesylamine hydrochloride]", "values": [
      {"measurement": "Serum interferon (Plaque inhibition)", "setting": "[1]", "result": 19.1, "unit": "%"},
      {"measurement": "Prevention from vaccinia infection (Inhibition of tail lesion)", "setting": "[2]", "result": 30.8, "unit": "%"},
      {"measurement": "LD50", "setting": "[3]; [4]", "result": "> 500", "unit": "mg/kg"},
      {"measurement": "LD50", "setting": "[3]; [5]", "result": 250, "unit": "mg/kg"}
    ]}
  ]
}
